Assay results: patent US20200289482A1, “CYSTIC FIBROSIS TRANSMEMBRANE CONDUCTANCE REGULATOR MODULATORS FOR TREATING AUTOSOMAL DOMINANT POLYCYSTIC KIDNEY DISEASE” (The Johns Hopkins University, priority 2017, published 2020)

Legend:
[1] = tested on: Pkd1^fl/fl; Pax8^rtTA; TetO-cre mice; experiment: Cyst growth and renal function in Pkd1 knockout mice treated with VX-809; assay type: in vivo, mouse
Protocol: (FIG. 1A) Representative images of postnatal day (PND) 21 kidney sections from DMSO- and VX-809-treated mice. Significant reductions occurred in (FIG. 1B) cyst index, (FIG. 1C) kidney weight, and (FIG. 1D) kidney-to-body weight ratio. […] Methods: The total kidney area and total cystic area were measured with ImageJ (provided by NIH). Cystic index=100× (total cystic area/total kidney area) and is expressed as a percentage. Columns represent means±standard error (SEM) for DMSO (vehicle)-treated (n=4-5) and VX-809 mice. *P<0.05; **P<0.01 (for all graphs). Statistical analysis was performed using an unpaired two-tailed Student's t-test;
When treated with doxycycline, these mice express Cre, causing knockout of PC1 (18). […] The dosage of VX-809 injected was lower than the human pediatric dose, which is 500 mg of Lumacaftor per day; the adult dose is 800 mg/day.
Mouse strain and treatment. Pkd1^fl/fl; Pax8^rtTA; TetO-cre mice on a C57BL/6 background (61) were provided by the Baltimore PKD Center. Mice of both sexes were used in this study. Mice were injected IP with doxycycline (Sigma, # D9891) ([…]) on postnatal day 11 (PND11), PND12, and PND13 to produce very rapid and aggressive cyst growth (18,19). On PND21, the mice were euthanized.

cAMP in PN cells = experiment: Cyclic AMP enzyme immunoassay in cells; assay type: cell-based, mouse
Protocol: FIG. 4A, FIG. 4B, FIG. 4C, FIG. 4D, and FIG. 4E show (FIG. 4A-FIG. 4B) cAMP levels are reduced by VX-809. (FIG. 4A) cAMP levels in mouse tissue were reduced by VX-809. The kidney samples (n=6) analyzed were taken from those depicted in FIG. 1. (FIG. 4B) Confluent PN and PH cells were treated with VX-809 (10 μM) or DMSO for 16 h and then treated with forskolin (100 μM) for 30 min before the cells were harvested for the assay. Columns represent means±SEM. Statistical analysis was performed using a two-tailed Student's t-test. Each set of data is from three individual wells; Note that resting cAMP is greater in PN vs PH cells as previously shown (25). Also note that forskolin caused a large increase in cAMP. A smaller increase occurred with IBMX. However, the increase induced by forskolin alone was similar to that by IBMX plus forskolin. […] (FIG. 4C, FIG. 4D, and FIG. 4E) Adenylyl cyclase expression. (FIG. 4C) Western blot showing the expression of adenylyl cyclase (AC) 6 and AC3 in treated and control PN cells. (FIG. 4D-FIG. 4E) Columns represent means±SEM of the AC3 and AC6 expression. The data were analyzed by non-parametric t-test. The experiment was repeated four times. For all graphs, *P<0.05, **P<0.01, and ***P<0.001;
It has been shown previously in both animal and cell culture models of ADPKD that cells lacking functional PC1 have elevated cAMP levels when compared to normal (24). To assess the effect of CFTR correctors, cAMP activity was measured in PC1 conditional knockout mouse kidneys and in PN cells that were either left untreated or treated with VX-809. […] Cells were treated with forskolin, which increased cAMP levels drastically (FIG. 4B). […] Treating PN cells with forskolin or IBMX (FIG. 4B) increased the cAMP activity by ˜10-fold.
Confluent cells were treated with VX-809 (10 μM) or DMSO for 16 h before being harvested for assay. Cyclic AMP levels were measured with a direct cAMP Enzyme Immunoassay Kit (Sigma, # CA200) according to the manufacturer's protocol. The results are expressed as pmole/ml. Statistical analysis was performed using a two-tailed Student's t-test.

[2] = tested on: caspase 3 activity in PN cells; experiment: EnzChek Caspase-3 assay (apoptosis); assay type: cell-based, mouse; conditions: 16 h treatment
Protocol: Apoptosis was measured using the EnzChek Caspase-3 Assay Kit (Invitrogen # E13184). Cells were treated either with VX-809 or with DMSO at indicated concentrations for 16 h or left untreated (control). Both treated and control cells were then harvested, lysed, and assayed as described in the manufacturer's protocol. Reactions were carried out at room temperature, and fluorescence was measured in a fluorescence microplate reader (SpectraMax M3), with excitation at 496 nm and emission detection at 520 nm. Background fluorescence, determined for a no-enzyme control, has been subtracted from each value. Ac-DEVD-CHO was used as an inhibitor control (Inh-cntrl) to confirm the correlation between signal detection and caspase3-like protease activity. Data were analyzed using one-way and ANOVA multiple comparisons. n=4-5. ****P<0.0001;
Apoptosis is associated with the absence of PC1 in ADPKD (36). To assess whether apoptosis is directly altered by VX-809, caspase 3 activity was monitored in PN cells.

PC2 = experiment: Confocal microscopy localization of PC2; assay type: cell-based; conditions: VX-809 treated vs control cells; ER, Golgi and PM markers
From the text: FIG. 17A and FIG. 17B show images of confocal microscopy localization studies of PC2 and localization markers in control and treated cells (FIG. 17A) and graphs showing Pearson's correlation coefficient for PC2 and localization markers in control and VX-809 treated cells (FIG. 17B).
The localization of PC2 and CFTR in control cells was compared to the localization of PC2 and CFTR localization in VX-809 treated cells.

CFTR = CFTR (Mus musculus, UniProt P26361); experiment: Biotinylation of CFTR in PN cells; assay type: cell-based; parameters: endogenous in cells; host or cells: PN (Pkd1-null mouse proximal tubule) cells; conditions: VX-809 treatment vs control PN cells
Protocol: FIG. 19A, FIG. 19B, FIG. 19C, and FIG. 19D show CFTR expression in PN cells treated with VX-809 (10 μM) for 16 h.
The expression of CFTR was evaluated in PN cells treated with VX-809 and control PN cells. PN cells were treated with 10 μM VX-809 for 16 h or a control.

[3] = VX-809 30 mg/kg IP daily PND10 to PND20 vs DMSO-treated mice
[4] = VX-809 30 mg/kg IP daily PND10 to PND20 vs control mice

Sequence of CFTR (P26361 whole entry): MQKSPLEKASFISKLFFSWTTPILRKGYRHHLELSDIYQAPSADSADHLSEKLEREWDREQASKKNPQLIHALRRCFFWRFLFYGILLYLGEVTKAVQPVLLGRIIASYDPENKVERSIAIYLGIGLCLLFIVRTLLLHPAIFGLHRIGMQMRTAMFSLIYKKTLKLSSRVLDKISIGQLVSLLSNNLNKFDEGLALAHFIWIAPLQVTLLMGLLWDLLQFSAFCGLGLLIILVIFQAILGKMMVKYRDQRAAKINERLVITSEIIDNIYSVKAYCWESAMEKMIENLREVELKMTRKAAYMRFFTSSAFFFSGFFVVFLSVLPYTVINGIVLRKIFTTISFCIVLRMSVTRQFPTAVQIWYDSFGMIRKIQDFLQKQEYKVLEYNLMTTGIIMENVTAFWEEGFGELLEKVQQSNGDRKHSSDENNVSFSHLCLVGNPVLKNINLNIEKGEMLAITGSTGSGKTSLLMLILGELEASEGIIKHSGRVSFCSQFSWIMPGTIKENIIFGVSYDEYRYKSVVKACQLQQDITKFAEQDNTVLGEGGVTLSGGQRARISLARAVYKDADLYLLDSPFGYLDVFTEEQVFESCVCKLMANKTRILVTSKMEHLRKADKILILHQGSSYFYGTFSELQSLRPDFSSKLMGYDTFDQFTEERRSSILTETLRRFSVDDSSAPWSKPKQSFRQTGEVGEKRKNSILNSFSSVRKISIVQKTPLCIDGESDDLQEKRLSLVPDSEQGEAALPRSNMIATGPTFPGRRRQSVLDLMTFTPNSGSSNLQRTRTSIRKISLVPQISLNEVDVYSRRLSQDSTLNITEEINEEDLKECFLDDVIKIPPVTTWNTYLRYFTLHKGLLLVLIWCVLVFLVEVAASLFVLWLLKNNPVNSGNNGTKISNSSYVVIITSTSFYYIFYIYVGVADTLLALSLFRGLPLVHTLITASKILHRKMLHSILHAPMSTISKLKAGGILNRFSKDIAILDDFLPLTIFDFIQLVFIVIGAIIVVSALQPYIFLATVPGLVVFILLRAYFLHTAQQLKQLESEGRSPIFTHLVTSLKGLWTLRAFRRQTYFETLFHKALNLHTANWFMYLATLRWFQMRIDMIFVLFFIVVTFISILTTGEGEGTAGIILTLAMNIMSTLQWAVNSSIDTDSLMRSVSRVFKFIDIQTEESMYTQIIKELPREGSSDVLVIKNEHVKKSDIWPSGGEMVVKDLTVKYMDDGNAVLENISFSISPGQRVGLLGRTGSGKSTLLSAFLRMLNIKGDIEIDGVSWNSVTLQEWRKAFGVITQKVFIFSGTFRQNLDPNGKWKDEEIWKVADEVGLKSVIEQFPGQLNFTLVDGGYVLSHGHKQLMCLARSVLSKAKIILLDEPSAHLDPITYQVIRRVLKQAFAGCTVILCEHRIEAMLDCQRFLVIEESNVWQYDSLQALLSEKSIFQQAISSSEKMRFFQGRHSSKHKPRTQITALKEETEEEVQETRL

lumacaftor [VX-809]
overall body weight ([1]; VX-809 30 mg/kg IP daily PND10 to PND20, treated vs untreated groups): no difference in overall body weight | blood urea nitrogen (BUN) [1, 3]: lowered blood urea nitrogen (BUN) | creatinine [1, 3]: lowered | less cyst growth (cyst index) ([1]; VX-809 30 mg/kg IP daily PND10 to PND20 vs DMSO, doxycycline-induced cysts, PND21): ~60.4% | Kidney weight [1, 4]: lower than those of the control mice | kidney-to-body weight ratio [1, 4]: lower than those of the control mice | forskolin-induced increase in cAMP (cAMP in PN cells; VX-809 10 μM 16 h, then forskolin 100 μM 30 min): reduced the forskolin-induced increase in cAMP | resting cAMP levels in PN cells (cAMP in PN cells; VX-809 10 μM, 16 h vs untreated PN cells): significantly decreased the cAMP levels | forskolin- or IBMX-induced increases in adenylyl cyclase activity (cAMP in PN cells; forskolin in combination with IBMX, data bars 5 and 9 FIG. 4B): did not affect the forskolin- or IBMX-induced increases in adenylyl cyclase activity | caspase 3 activity [2]: small reduction in caspase 3 activity | localization of PC2 (PC2): statistically significant move of PC2 from the ER to Golgi | biotinylation of CFTR (CFTR): significantly increased
